Experiments:
[1] = biological target: T1, Serine/threonine-protein kinase Nek9 (Homo sapiens) (UniProt Q8TD19); assay: Inhibition of human NEK9 at 18.6 nM by HotSpot assay relative to control
T1 sequence (whole entry): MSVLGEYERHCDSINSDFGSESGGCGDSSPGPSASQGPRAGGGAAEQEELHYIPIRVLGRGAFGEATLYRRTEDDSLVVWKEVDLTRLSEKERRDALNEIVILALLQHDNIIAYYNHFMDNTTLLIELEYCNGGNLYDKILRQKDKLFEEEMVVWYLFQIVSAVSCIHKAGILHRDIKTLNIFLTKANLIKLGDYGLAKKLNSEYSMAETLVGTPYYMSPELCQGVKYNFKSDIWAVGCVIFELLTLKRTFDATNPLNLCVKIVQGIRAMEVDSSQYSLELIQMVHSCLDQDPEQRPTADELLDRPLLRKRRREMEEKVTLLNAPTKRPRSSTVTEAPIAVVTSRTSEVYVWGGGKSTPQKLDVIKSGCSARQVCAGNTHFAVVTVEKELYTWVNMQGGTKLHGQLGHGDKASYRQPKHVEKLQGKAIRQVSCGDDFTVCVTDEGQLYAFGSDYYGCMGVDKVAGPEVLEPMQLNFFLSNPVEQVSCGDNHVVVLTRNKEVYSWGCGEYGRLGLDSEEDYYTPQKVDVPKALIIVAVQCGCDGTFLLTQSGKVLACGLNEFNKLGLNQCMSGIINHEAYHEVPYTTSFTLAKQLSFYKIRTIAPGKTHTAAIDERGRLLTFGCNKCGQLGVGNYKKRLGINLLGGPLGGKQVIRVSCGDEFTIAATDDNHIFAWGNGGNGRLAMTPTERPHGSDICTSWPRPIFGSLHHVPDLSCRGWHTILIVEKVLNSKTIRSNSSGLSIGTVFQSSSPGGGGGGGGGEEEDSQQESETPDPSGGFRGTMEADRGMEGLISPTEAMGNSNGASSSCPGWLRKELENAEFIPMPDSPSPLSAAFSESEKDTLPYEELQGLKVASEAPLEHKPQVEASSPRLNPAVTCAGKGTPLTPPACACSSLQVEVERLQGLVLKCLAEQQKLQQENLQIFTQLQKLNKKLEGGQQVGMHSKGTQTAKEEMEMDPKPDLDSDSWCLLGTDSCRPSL

[2] = biological target: Leucine-rich repeat serine/threonine-protein kinase 2 (Homo sapiens) (UniProt Q5S007); assay: Inhibition of human LRRK2 at 18.6 nM by HotSpot assay relative to control
[3] = biological target: T2, Muscle, skeletal receptor tyrosine-protein kinase (Homo sapiens) (UniProt O15146); assay: Inhibition of human MUSK at 1.82 nM by HotSpot assay relative to control
T2 sequence (whole entry): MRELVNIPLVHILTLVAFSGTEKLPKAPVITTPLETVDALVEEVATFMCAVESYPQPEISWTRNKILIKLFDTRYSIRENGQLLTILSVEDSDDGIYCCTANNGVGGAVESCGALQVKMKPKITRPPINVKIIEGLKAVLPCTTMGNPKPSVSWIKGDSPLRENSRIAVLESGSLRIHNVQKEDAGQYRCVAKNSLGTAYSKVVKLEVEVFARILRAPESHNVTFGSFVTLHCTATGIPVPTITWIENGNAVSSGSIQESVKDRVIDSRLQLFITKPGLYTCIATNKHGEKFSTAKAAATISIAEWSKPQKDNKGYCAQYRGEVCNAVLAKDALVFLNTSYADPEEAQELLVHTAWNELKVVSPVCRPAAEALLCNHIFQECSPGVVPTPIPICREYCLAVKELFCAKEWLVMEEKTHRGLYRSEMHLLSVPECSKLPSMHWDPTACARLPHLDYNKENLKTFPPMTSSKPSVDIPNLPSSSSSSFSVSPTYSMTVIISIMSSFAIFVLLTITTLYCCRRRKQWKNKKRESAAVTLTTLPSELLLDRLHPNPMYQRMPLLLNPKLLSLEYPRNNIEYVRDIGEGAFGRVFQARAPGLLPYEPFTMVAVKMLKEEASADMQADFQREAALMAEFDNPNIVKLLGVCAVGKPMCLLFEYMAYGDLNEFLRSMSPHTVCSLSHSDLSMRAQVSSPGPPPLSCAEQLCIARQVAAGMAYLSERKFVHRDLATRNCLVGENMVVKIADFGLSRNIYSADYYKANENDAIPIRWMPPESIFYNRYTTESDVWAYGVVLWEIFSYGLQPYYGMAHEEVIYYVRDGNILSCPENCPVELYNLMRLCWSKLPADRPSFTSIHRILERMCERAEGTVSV

[4] = biological target: T3, Mitogen-activated protein kinase kinase kinase 3 (Homo sapiens) (UniProt Q99759); assay: Inhibition of human MEKK3 at 1.82 nM by HotSpot assay relative to control
T3 sequence (whole entry): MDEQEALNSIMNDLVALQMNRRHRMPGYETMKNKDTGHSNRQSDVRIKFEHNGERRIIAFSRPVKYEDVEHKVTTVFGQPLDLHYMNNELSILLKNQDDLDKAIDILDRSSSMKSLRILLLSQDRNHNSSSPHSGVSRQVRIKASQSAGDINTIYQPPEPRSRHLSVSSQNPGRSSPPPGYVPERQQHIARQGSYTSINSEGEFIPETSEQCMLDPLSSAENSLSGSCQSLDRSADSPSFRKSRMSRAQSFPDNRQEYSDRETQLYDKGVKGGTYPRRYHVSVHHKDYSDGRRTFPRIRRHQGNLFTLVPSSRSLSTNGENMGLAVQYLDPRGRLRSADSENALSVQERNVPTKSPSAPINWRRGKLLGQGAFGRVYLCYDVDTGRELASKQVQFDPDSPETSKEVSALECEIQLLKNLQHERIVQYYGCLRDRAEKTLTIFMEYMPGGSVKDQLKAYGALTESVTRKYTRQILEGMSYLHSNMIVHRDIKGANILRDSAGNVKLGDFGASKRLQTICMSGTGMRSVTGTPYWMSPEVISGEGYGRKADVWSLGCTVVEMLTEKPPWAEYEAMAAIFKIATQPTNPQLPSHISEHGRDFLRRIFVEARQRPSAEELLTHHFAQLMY

[5] = biological target: Death-associated protein kinase 3 (Homo sapiens) (UniProt O43293); assay: Inhibition of human DAPK3 at 1.82 nM by HotSpot assay relative to control
[6] = biological target: Casein kinase I isoform gamma-2 (Homo sapiens) (UniProt P78368); assay: Inhibition of human CK1g2 at 1.82 nM by HotSpot assay relative to control
Chain of Casein kinase I isoform gamma-2 (Homo sapiens) (P78368 whole entry, looked up, canonical isoform): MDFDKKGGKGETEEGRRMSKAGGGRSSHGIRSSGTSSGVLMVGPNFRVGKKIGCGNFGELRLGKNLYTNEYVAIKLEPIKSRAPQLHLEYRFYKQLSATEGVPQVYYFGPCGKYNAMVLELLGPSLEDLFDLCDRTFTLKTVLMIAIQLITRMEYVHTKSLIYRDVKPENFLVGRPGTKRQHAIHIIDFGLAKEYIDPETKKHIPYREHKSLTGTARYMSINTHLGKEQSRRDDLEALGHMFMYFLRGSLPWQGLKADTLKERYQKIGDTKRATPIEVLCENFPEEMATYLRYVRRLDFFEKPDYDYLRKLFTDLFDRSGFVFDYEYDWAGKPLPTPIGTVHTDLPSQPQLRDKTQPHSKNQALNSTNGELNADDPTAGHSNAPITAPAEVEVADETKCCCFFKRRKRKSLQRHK

Chain of Death-associated protein kinase 3 (Homo sapiens) (O43293 whole entry, looked up, canonical isoform): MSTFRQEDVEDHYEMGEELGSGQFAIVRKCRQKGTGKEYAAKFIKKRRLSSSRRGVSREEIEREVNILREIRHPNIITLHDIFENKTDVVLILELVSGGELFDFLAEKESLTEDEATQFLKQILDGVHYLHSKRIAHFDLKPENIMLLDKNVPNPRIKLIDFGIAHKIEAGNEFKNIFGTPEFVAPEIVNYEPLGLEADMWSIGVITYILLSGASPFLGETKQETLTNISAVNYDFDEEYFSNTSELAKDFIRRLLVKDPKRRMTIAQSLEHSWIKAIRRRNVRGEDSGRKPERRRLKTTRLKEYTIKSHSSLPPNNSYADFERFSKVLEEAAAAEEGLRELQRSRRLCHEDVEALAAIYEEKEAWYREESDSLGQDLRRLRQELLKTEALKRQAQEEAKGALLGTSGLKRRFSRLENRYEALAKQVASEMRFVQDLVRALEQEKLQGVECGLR
Chain of Leucine-rich repeat serine/threonine-protein kinase 2 (Homo sapiens) (Q5S007 whole entry): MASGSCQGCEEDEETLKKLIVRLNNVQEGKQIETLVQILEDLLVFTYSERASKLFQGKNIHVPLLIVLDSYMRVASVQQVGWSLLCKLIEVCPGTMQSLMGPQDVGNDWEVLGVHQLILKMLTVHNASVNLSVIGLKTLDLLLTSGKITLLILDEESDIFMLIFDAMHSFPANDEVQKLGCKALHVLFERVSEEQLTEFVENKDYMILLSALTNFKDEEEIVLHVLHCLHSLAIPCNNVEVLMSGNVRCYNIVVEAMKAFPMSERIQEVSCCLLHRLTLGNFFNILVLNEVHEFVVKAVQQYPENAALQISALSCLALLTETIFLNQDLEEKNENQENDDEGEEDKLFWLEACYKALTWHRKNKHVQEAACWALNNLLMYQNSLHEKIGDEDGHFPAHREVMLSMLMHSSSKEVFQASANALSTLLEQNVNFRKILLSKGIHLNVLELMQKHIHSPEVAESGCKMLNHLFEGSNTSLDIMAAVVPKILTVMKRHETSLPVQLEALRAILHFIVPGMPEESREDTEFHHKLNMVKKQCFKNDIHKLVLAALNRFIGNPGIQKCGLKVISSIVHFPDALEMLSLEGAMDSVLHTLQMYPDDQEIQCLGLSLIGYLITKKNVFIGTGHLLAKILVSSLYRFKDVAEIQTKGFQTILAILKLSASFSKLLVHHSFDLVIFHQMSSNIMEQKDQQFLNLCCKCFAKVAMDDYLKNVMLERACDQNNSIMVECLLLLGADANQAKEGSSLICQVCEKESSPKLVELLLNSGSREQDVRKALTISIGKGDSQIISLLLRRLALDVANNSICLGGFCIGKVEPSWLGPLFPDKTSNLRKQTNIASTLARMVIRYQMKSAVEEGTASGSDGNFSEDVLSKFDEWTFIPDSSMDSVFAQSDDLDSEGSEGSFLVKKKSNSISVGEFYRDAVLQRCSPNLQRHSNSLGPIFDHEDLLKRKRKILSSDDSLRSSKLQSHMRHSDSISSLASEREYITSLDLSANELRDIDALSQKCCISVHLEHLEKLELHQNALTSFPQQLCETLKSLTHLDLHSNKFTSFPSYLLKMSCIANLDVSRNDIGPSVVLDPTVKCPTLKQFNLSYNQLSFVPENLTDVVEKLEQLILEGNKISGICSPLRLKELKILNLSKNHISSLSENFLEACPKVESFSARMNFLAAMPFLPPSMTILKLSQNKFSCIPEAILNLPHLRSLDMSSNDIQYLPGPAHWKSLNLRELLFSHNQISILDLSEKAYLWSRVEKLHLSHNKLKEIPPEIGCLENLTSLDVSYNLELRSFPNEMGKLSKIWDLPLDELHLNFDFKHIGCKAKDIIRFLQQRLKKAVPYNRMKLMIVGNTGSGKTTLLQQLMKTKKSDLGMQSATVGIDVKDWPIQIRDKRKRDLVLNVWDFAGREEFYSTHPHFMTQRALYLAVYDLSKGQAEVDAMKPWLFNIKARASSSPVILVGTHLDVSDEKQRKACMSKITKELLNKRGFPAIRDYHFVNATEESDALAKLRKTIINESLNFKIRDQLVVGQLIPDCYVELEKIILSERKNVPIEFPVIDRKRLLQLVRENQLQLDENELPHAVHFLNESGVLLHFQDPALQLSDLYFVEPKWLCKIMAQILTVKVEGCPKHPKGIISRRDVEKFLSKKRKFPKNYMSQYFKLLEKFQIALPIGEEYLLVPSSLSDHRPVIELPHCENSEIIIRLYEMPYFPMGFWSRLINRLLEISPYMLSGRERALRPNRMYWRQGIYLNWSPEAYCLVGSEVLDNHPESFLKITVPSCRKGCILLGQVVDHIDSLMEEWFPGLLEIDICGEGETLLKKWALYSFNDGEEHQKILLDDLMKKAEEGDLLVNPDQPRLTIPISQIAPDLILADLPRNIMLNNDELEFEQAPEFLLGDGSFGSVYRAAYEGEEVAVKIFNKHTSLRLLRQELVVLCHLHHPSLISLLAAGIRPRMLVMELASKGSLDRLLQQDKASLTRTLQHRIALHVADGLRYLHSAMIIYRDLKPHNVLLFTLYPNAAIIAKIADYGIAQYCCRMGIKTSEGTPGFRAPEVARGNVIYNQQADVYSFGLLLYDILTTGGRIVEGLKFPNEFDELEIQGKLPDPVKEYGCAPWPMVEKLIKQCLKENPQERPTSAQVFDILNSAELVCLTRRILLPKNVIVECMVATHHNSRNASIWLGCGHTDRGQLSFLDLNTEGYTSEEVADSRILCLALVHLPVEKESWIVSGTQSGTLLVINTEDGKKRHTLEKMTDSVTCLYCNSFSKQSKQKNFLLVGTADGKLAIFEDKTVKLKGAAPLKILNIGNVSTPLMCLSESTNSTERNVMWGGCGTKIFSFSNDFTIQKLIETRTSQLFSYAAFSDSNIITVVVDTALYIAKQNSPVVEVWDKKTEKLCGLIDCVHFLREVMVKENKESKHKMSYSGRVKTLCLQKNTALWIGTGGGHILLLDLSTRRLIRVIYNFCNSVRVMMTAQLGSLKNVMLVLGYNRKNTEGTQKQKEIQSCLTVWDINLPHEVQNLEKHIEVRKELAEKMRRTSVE

SMILES | inhibition [1] [%] | inhibition [2] [%] | inhibition [3] [%] | inhibition [4] [%] | inhibition [5] [%] | inhibition [6] [%]
C[C@]1(O)C[C@@H](c2nc(-c3ccc4ccc(-c5ccccc5)nc4c3)c3c(N)nccn32)C1 | -6.26 | -3.07 | – | – | – | –
C[C@@]1(C(=O)Nc2ccc(F)nc2)CCCN1c1nc(Nc2cc(C3CC3)n[nH]2)c2cccn2n1 | – | – | -0.39 | -2.8 | 10.5 | -3.24
